The source of these data is US9273043B2, “TRPV1 antagonists including dihydroxy substituent and uses thereof” (Purdue Pharma L.P., priority 2011, dated 2016).

SMILES strings stand for the structures. ≈ marks a conversion by molar mass, not a printed value. Where two headings read alike, the source gives them in different places. Bounds are passed on as bounds.

The target in data set [1] is T1, human TRPV1 (Homo sapiens (Human), UniProt Q8NER1). Description: Capsaicin-based assay, Protocol 2, TRPV1/CHO cells (hCAP-CHO), Fluo-4 FLIPR. The class given is cell-based. The conditions noted are these: 100 nM capsaicin, mean ± SEM. The text has this:
The TRPV1/CHO cell line was generated as described below. […] The resulting PCR products were purified from agarose gels using Gel Band Purification Kit (GE Healthcare Bioscience) and were subcloned into pCR-Blunt vector (Invitrogen). The cloned cDNA was fully sequenced using a fluorescent dye-terminator reagent (BigDye Terminator ver3.1 Cycle Sequencing Kit, Applied Biosystems) and ABI Prism 3100 genetic analyzer (Applied Biosystems). The pCR-Blunt vector containing the hTRPV1 cDNA was subjected to restriction digestion with EcoR1. The restriction fragment was subcloned into expression vector pcDNA3.1(-) (Invitrogen) and named pcDNA3.1(-)-hVR1 plasmid. The sequence of the cDNA encoding TRPV1 is available at GenBank accession number AJ277028. […] The cells were transfected with the pcDNA3.1(-)-hVR1 plasmid using FuGENE6 (Roche) according to the manufacturer's protocol. 24 hr after transfection, neomycin-resistant cells were selected using 1 mg/mL G418 (Nacalai Tesque). […] The cells expressing hTRPV1 were cultured in the growth medium supplemented with 1 mg/mL G418. […] Capsaicin-based Assay: […] Subsequently, the cells were loaded by incubation in 0.1 mL of wash buffer containing Fluo-4 at 3 μM final concentration. After 1 hour, the cells were washed twice with 0.2 mL wash buffer and resuspended in 0.1 mL wash buffer. The plates were then transferred to a Fluorescence Imaging Plate Reader (Molecular Devices). Fluorescence intensity was monitored for 15 seconds to establish a baseline. […] The final concentration of the compound was adjusted to range from 100 μM to 1.5625 μM. […] Data were collected over the entire time course and analyzed using Excel and the curve-fitting formula GraphPad Prism.

In data set [2] the target is T1, human TRPV1. Description: pH-based assay, Protocol 2, TRPV1/CHO cells (hpH-CHO), Fura-2 Ca2+ influx. The class given is cell-based. The conditions noted are these: pH 5.0-5.1 (H2SO4), mean ± SEM. How it is done:
For Protocol 2, a Chinese Hamster Ovary cell line (CHO) that has been engineered to constitutively express human recombinant TRPV1 was used (TRPV1/CHO cells). The TRPV1/CHO cell line was generated as described below.
TRPV1/CHO cells were seeded in the 96-well clear-bottom black-wall plate (Nunc) at densities of 1-2×10^4 cells/well and grown in 100 μL of culture medium (alpha-MEM supplemented with 10% FBS, 20 mM HEPES, 1 mg/mL geneticin and 1% antibiotic-antimycotic mixed stock solution) for 1-2 days before the experiment.
(1) Culture medium was removed using an 8-channel-pipette (Rainin, USA) from the 96-well plate and the wells were refilled with 100 μL of loading buffer (20 mM HEPES, 115 mM NaCl, 5.4 mM KCl, 0.8 mM MgCl2, 1.8 mM CaCl2, 13.8 mM D-glucose, 2.5 mM probenecid, pH 7.4) containing 5 μM Fura-2 AM (Dojin, Japan).
(2) The 96-well plate was incubated at 37° C. for 45 min.
(3) The loading buffer was removed from each well. The cells were subsequently washed twice with 150 μL of measuring buffer (20 mM HEPES, 115 mM NaCl, 5.4 mM KCl, 0.8 mM MgCl2, 5.0 mM CaCl2, 13.8 mM D-glucose, 0.1% BSA, pH 7.4) (no probenecid). The wells were then refilled with 80 μL of measuring buffer.
(4) After an incubation at 4° C. for 15 min, the 96-well plate was transferred to a model FDSS-3000 plate reader apparatus (Hamamatsu Photonics K.K., Japan).
(5) The Fura-2 fluorescent intensity was monitored at a wavelength of 340 nm and at 380 nm, respectively, at a rate of 0.5 Hz for a total of 240 seconds. After 16 time points (32 sec) of baseline detection, 20 μL of agonist solution was added to each well. The final volume was 100 μL/well.
(6) Fluorescence intensity ratio refers to the fluorescence intensity at 340 nm over the fluorescence intensity at 380 nm at a particular time point. The baseline was set as the average of the fluorescent intensity ratios for the first 16 time points before the addition of agonist solution. The maximum response was the highest fluorescent intensity ratio during the 60 time points following addition of agonist solution.
(7) Maximal signal ratios from each well were calculated as output data using the FDSS-3000 analysis program. Data were analyzed using Excel (Microsoft) and XLfit (idbs) software.
In an “agonist plate,” two different agonist solutions with different H2SO4 concentrations were used for the pH assay (see, e.g., FIG. 3A of U.S. Patent Application Publication No. US 2009/0170868 A1). For the first half of a 96-well plate one agonist solution was used; for the second half the other agonist solution was used. The agonist solutions were obtained by diluting sulfuric acid (1M H2SO4) with measuring buffer. The concentrations for the two agonist solutions were determined as described above in Section 2 of Protocol 2.
The sulfuric acid concentrations between the two agonist solutions differed by 0.5 mM. In the experiment described in Section 2 of Protocol 2, the sulfuric acid concentrations in the agonist solutions were determined to be 16 mM and 16.5 mM, respectively. After 1:4 dilution of the agonist solutions, the final sulfuric acid concentration was 3.2 mM and 3.3 mM, respectively. The resulting pH value for the pH assay was 5.0 to 5.1.
Test compounds were dissolved in DMSO to yield 1 mM stock solutions. The stock solutions were further diluted using DMSO in […] serial dilution steps with 6 points (1000, 250, 62.5, 15.625, 3.9062, and 0.977 μM). The thereby-obtained solutions were further diluted in measuring buffer (1:100) as 10× stock serial dilutions with a DMSO concentration of 1%. 10 μL of a 10× stock was added into each well of an “antagonist plate” (see step 3.3.(4) below). Thus, the final concentrations of antagonists was as follows: 0.977, 3.906, 15.63, 62.5, 250, and 1000 nM containing 0.1% DMSO (see, e.g., FIG. 3B of U.S. Patent Application Publication No. US 2009/0170868 A1).
Steps (1) and (2) of this Assay were the same as steps 2.2.(1) and 2.2.(2), respectively, of Protocol 2. […]

Data set [3] addresses T1, human TRPV1. In words: Human TRPV1 heat-based assay, hTRPV1/CHO cells (hHeat-CHO). The class given is cell-based. The conditions noted are these: temperature ramp 25 to 45 °C, mean ± SEM. On the procedure:
Human TRPV1 Heat-based Assay:
CHO cells stably expressing human TRPV1 (hTRPV1) were used. Functional assessment of heat-induced activation of hTRPV1 was carried out in a cell-based Ca^2+ flux assay using ABI7500 Fast Real-Time PCR System as described in Reubish et al., “Functional assessment of temperature-gated ion-channel activity using a real-time PCR machine,” www.BioTechniques.com 47(3):iii-ix (2009), which is hereby incorporated by reference. Briefly, hTRPV1/CHO cells were cultured in growth media in a tissue culture dish at 37° C. in a CO2 incubator. On the day of the assay, culture media were removed and the cells were then detached using 0.05% trypsin at 37° C. with 5% CO2, for 90 s. The detached cells were centrifuged (1000 rpm, 4 min) to remove trypsin-containing supernatant and resuspended in assay buffer (115 mM NaCl, 5.4 mM KCl, 0.8 mM MgCl2.6H2O, 1.8 mM CaCl2.2H2O, 13.8 mM D-glucose, and 20 mM HEPES). Then, the cells were loaded with 5 μM Fluo-4, a Ca^2+ reporter dye, in the presence of 2.5 mM probenecid at 37° C. with 5% CO2, for 45 min. Thereafter, the cells were washed twice with measuring buffer (assay buffer supplemented with 0.1% BSA and 3.2 mM CaCl2) then transferred to a Fast 96-well Reaction Plate (0.1 mL) (Part no. 4346907, MICROAMP, Applied Biosystems, Foster City, Calif.). The cell density was 100,000 cells/24 μL/well. A solution of the compound under test (6 μL/well) was added into each well of the 96-well plate. Thus, the reaction volume per well was 30 μL.
The plates were then placed inside an ABI7500 Fast Real-Time PCR instrument (Applied Biosystems) to read fluorescence at different temperatures using 7500 software, version 2.0.2 (Applied Biosystems). The initial temperature was set at 25° C. for 1 min. followed by a temperature ramp to 45° C. in 100 s to deliver heat to cells. [Ca^2+], response of hTRPV1/CHO cells to heat was determined as: [fluorescence read at 45° C.−fluorescence read at 25° C.].
Compound concentration response curves and IC50 values were analyzed using GraphPad Prism 4 software (GraphPad Software, La Jolla, Calif.).
The IC50 data provided in Table 6 are shown as mean±standard error of the mean; the number of trials conducted for each assay is shown in parentheses except for only a single trial where no number of trials is shown in parentheses.

A short description of data set [4]: Aqueous solubility at pH 1.2 and pH 6.8. The class given is physicochemical. The note with it: aqueous solution.
Data set [5] in a line: In vivo assay of body temperature increase (rectal body temperature). The note with it: rats, oral, 10 mL/kg of 1 mg/mL in 0.5% methylcellulose; greatest ΔTb versus vehicle control at 0.5, 1 or 2 hrs. Set-up: species or system rat. The text has this:
Hyperthermia or undesirable elevation in animal body temperature is known to be an undesirable side-effect accompanying the administration of certain TRPV1 antagonists (Gavva, “Body-temperature maintenance as the predominant function of the vanilloid receptor TRPV1,” Trends Pharmacol. Sci. 29(11):550-557 (2008)).
Test Animals: Selection of rats (Crl/SD rats, 7 weeks, male) was based on rectal body temperature measured during the morning of the day of dosing as described below. In addition, to minimize spontaneous, stress-induced increases in body temperature, rats were acclimated in advance to both the rectal measurement procedure and to being handled and dosed. All lodging and testing took place in animal care laboratories with constant room temperature and humidity. The rats were free to move and ingest food and water throughout. Each rat was coded with a colored line on the tail, housed in a separate cage, and permitted the normal range of movement. Immediately before each body temperature measurement, a rat was transferred to a measurement cage. To reduce stress which could influence its body temperature, each rat was covered with towels during the measurement. A thermistor probe was then carefully inserted into the rectum of each rat and left in place until the temperature reading on the digital display had stabilized; this value was recorded.
Assay: On the day before dosing, rectal body temperature was measured at 9:00, 10:00, 11:00, 12:30, 13:30, 14:30, and 15:30 o'clock to familiarize the rats with the measurement procedure prior to administration of the test or control treatments. The rats were also dosed by oral gavage without vehicle at 12:30 o'clock to acclimate and familiarize them with the handling and dosing procedure.
On the day of dosing, only rats with rectal body temperatures within the range of from 37.0° C. to 37.7° C. were selected for study. Rectal body temperatures were measured at 9:00, 10:00, and 11:00 o'clock. Rats were excluded from the study if either their rectal body temperature was over 37.9° C. at 10:00 o'clock or was outside the range of from 37.0° C. to 37.7° C. at 11:00 o'clock. The selected rats were divided into several groups based on their rectal body temperatures at 11:00 o'clock. Rectal body temperatures of the selected rats were measured again at 12:30 o'clock and any rat with a rectal body temperature of 38.0° C. or greater was also excluded from the study.
Following assignment to either a test or control group, a test compound or a control was administered to the rats. Each test compound was dissolved in a vehicle of 0.5% aqueous methylcellulose solution and the final concentration of the test compound was adjusted to 1 mg/mL. Each test compound was orally administered once at a dose of 10 mL/kg. The same volume of the control (vehicle only) was administered once to the control group. Rectal body temperatures were measured at the following time points: 0.5, 1, and 2 hrs after administration.
The body temperature increase (ΔTb) for each test compound was calculated by subtracting, at each time point, the average temperature of the control group from the average temperature of the group administered that test compound. The greatest ΔTb obtained for each test compound at any of the time points is shown in Table 11 below, along with the ΔTb of the control.

T1 sequence (Q8NER1 whole entry, looked up, the tested form may be a part): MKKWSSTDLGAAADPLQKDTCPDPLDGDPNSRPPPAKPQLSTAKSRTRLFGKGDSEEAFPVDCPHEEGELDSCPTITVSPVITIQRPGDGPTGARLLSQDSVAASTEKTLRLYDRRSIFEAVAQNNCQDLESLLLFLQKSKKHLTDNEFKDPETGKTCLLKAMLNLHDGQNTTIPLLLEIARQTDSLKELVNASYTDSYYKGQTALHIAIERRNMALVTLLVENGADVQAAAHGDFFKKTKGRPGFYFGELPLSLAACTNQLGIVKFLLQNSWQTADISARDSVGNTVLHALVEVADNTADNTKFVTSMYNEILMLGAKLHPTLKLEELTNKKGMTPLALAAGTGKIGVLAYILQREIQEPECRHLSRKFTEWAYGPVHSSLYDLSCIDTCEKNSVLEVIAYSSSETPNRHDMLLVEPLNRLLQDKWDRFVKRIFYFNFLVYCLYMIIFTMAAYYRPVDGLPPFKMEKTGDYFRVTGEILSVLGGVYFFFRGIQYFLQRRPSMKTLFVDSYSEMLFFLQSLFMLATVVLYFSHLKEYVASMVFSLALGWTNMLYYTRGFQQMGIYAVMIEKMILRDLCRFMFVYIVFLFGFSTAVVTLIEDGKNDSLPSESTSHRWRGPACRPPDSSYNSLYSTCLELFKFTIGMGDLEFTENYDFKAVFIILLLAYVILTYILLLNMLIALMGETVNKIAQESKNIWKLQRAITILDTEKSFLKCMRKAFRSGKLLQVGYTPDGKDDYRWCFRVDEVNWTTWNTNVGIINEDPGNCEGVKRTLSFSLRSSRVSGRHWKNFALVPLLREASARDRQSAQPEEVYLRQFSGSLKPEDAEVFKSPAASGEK

For `C[C@@H]1CN(c2ncc([C@@H](O)CO)cc2F)CCN1C(=O)Nc1nc2ccccc2s1` [A122(e), (R)—N-(benzo[d]thiazol-2-yl)-4-(5-((R)-1,2-dihydroxyethyl)-3-fluoropyridin-2-yl)-2-methylpiperazine-1-carboxamide], the IC50 in data set [1] amounted to 80.6 ± 7.5 nM; in data set [2], 5.8 ± 0.7 nM; in data set [3] it was 96 ± 2.4 nM.
Regarding `C[C@@H]1CN(c2ncc([C@@H](O)CO)cc2F)CCN1C(=O)Nc1nc2ccc(F)cc2s1` [A125(e), (R)-4-(5-((R)-1,2-dihydroxyethyl)-3-fluoropyridin-2-yl)-N-(6-fluorobenzo[d]thiazol-2-yl)-2-methylpiperazine-1-carboxamide], the concentration for half-maximal inhibition (IC50) in data set [1] stood at 23.9 ± 3.8 nM; in data set [2] it was 0.6 ± 0.2 nM; in data set [3] it was 18.4 ± 0.8 nM.
With `C[C@H]1CN(c2ncc([C@H](O)CO)cc2F)CCN1C(=O)Nc1nc2cc(F)ccc2s1` [A155(a), (S)-4-{5-[(S)-1,2-Dihydroxyethyl]-3-fluoropyridin-2-yl}-N-(5-fluorobenzo[d]thiazol-2-yl)-2-methylpiperazine-1-carboxamide], the solubility in data set [4] (pH 1.2, simulated gastric fluid, read-out: aqueous solubility at pH 1.2) was > 50 µM; in data set [4] (pH 6.8, aqueous buffer, read-out: aqueous solubility at pH 6.8) it was 17 µM (≈ 7.64 µg/mL). In addition, the values for the IC50 in data set [1] and in data set [3] were 96 ± 18 nM and 700 nM, respectively. Besides, in data set [5], the “ΔTb, body temperature increase” value turned out to be 0.2 °C.
Turning to `C[C@H](O)[C@@H](O)c1cnc(N2CCN(C(=O)Nc3nc4ccc(F)cc4s3)[C@@H](C)C2)c(F)c1` [BB, (S)-4-{5-[(1S,2S)-1,2-dihydroxypropyl]-3-fluoropyridin-2-yl}-N-(6-fluorobenzo[d]thiazol-2-yl)-2-methylpiperazine-1-carboxamide], the concentration for half-maximal inhibition (IC50) was found to be 63.7 ± 13.4 nM in data set [1] and 490 nM in data set [3]. Moreover, the “ΔTb, body temperature increase” value in data set [5] came out at 0.5 °C.

For orientation: IC50 means the concentration needed to halve the response being measured. As a reminder, the solubility is the concentration that dissolves in the medium under given conditions.
